Values quoted from earlier work in article PMC8513935.

How the values were obtained:
[1] = log P octanol/water from commercial databases, averaged (the ESI); conditions: Octanol (wet), 25 C
[2] = derived by the authors as gas->solvent minus gas->water (a hypothetical dry solvent; the ESI), not a two-phase measurement
[3] = experimental, compiled by the authors from the literature (the ESI cites the sources)

Compound	log K of transfer, water to solvent [1] [log10 K]	log K of transfer, water to solvent ([2]; 2-Methylpropan-1-ol, 25 C) [log10 K]	log K of transfer, water to solvent ([2]; 2-Methylpropan-2-ol, 25 C) [log10 K]	log K of transfer, water to solvent ([2]; 3-Methylbutan-1-ol, 25 C) [log10 K]	log K of transfer, water to solvent ([2]; Butan-1-ol, 25 C) [log10 K]	log K of transfer, water to solvent ([2]; Butan-2-ol, 25 C) [log10 K]	log K of transfer, water to solvent ([2]; Di-n-butyl ether, 25 C) [log10 K]	log K of transfer, water to solvent ([2]; Hexadecane, 25 C) [log10 K]	log K of transfer, water to solvent ([2]; Hexane, 25 C) [log10 K]	log K of transfer, water to solvent ([2]; Methanol, 25 C) [log10 K]	log K of transfer, water to solvent ([2]; Pentan-1-ol, 25 C) [log10 K]	log K of transfer, water to solvent ([2]; Propan-1-ol, 25 C) [log10 K]	log K of transfer, water to solvent ([2]; Propan-2-ol, 25 C) [log10 K]	log K of transfer, gas to solvent ([3]; 2-Methylpropan-1-ol, 25 C) [log10 K]	log K of transfer, gas to solvent ([3]; 2-Methylpropan-2-ol, 25 C) [log10 K]	log K of transfer, gas to solvent ([3]; 3-Methylbutan-1-ol, 25 C) [log10 K]	log K of transfer, gas to solvent ([3]; Butan-1-ol, 25 C) [log10 K]	log K of transfer, gas to solvent ([3]; Butan-2-ol, 25 C) [log10 K]	log K of transfer, gas to solvent ([3]; Hexadecane, 25 C) [log10 K]	log K of transfer, gas to solvent ([3]; Water, 25 C) [log10 K]	other results
Cc1cc(C)c(C)cc1C	4.1	4.24	4.32	4.33	4.39	4.32	4.74	4.5	4.78	3.99	4.39	4.26	4.22	4.77	4.85	4.86	4.92	4.85	5.03	0.53	log K of transfer, water to solvent ([2]; Decan-1-ol, 25 C): 4.48 log10 K; log K of transfer, water to solvent ([2]; Diethyl Ether, 25 C): 4.85 log10 K; log K of transfer, water to solvent ([2]; Ethanol, 25 C): 4.19 log10 K; log K of transfer, water to solvent ([2]; Heptan-1-ol, 25 C): 4.44 log10 K; log K of transfer, water to solvent ([2]; Hexan-1-ol, 25 C): 4.42 log10 K; log K of transfer, gas to solvent ([3]; Decan-1-ol, 25 C): 5.01 log10 K; log K of transfer, gas to solvent ([3]; Di-n-butyl ether, 25 C): 5.27 log10 K; log K of transfer, gas to solvent ([3]; Diethyl Ether, 25 C): 5.38 log10 K; log K of transfer, gas to solvent ([3]; Ethanol, 25 C): 4.72 log10 K; log K of transfer, gas to solvent ([3]; Heptan-1-ol, 25 C): 4.97 log10 K; log K of transfer, gas to solvent ([3]; Hexan-1-ol, 25 C): 4.95 log10 K; log K of transfer, gas to solvent ([3]; Hexane, 25 C): 5.31 log10 K; log K of transfer, gas to solvent ([3]; Methanol, 25 C): 4.52 log10 K; log K of transfer, gas to solvent ([3]; Pentan-1-ol, 25 C): 4.92 log10 K; log K of transfer, gas to solvent ([3]; Propan-1-ol, 25 C): 4.79 log10 K; log K of transfer, gas to solvent ([3]; Propan-2-ol, 25 C): 4.75 log10 K
CCCCF	2.29	–	–	–	–	–	–	2.06	–	–	–	–	–	–	–	–	–	–	1.77	-0.29	–
O=C1CCCC1	0.38	–	–	–	–	–	0.08	-0.229	–	–	–	–	–	–	–	–	–	–	3.22	3.45	log K of transfer, water to solvent ([2]; 1,2-Dichloroethane, 25 C): 1.14 log10 K; log K of transfer, water to solvent ([2]; CCl4, 25 C): 0.61 log10 K; log K of transfer, water to solvent ([2]; Octan-1-ol(dry), 25 C): 0.22 log10 K; log K of transfer, gas to solvent ([3]; 1,2-Dichloroethane, 25 C): 4.59 log10 K; log K of transfer, gas to solvent ([3]; CCl4, 25 C): 4.06 log10 K; log K of transfer, gas to solvent ([3]; Di-n-butyl ether, 25 C): 3.53 log10 K; log K of transfer, gas to solvent ([3]; Octan-1-ol, 25 C): 3.67 log10 K
CCCl	1.43	1.32	1.33	1.32	1.37	1.31	–	1.22	1.45	1.47	1.35	1.4	1.35	1.78	1.79	1.78	1.83	1.77	1.68	0.46	log K of transfer, water to solvent ([2]; Chlorobenzene, 25 C): 1.71 log10 K; log K of transfer, gas to solvent ([3]; Chlorobenzene, 25 C): 2.17 log10 K; log K of transfer, gas to solvent ([3]; Hexane, 25 C): 1.91 log10 K; log K of transfer, gas to solvent ([3]; Methanol, 25 C): 1.93 log10 K; log K of transfer, gas to solvent ([3]; Pentan-1-ol, 25 C): 1.81 log10 K; log K of transfer, gas to solvent ([3]; Propan-1-ol, 25 C): 1.86 log10 K; log K of transfer, gas to solvent ([3]; Propan-2-ol, 25 C): 1.81 log10 K
C/C=C/C	2.31	–	–	–	–	–	–	2.64	–	–	–	–	–	–	–	–	–	–	1.66	-0.98	log K of transfer, water to solvent ([2]; Acetone, 25 C): 2.79 log10 K; log K of transfer, gas to solvent ([3]; Propanone, 25 C): 1.81 log10 K
